Data published in publication PMC12394658, “Discovery of Zharp1-163 as a dual inhibitor of ferroptosis and necroptosis for the treatment of inflammatory disorders and kidney injury” (Cell Death Discovery, 2025).

Assays:
Assay in all cases: biochemical
Set-up in all cases: Kinase selectivity panel of 81 human kinases, ADP-Glo or HTRF, per cent inhibition at 1 uM
HPK1 = target: T1, HPK1 (Homo sapiens, UniProt Q92918)
T1 construct: gene MAP4K1
How it was run: (§1)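 Kinase-panel selectivity profiling of 81 kinases with compound at 1000 nM.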

MAP3K19 = MAP3K19 (Homo sapiens, UniProt Q56UN5)
Sequence of MAP3K19 (Q56UN5 whole entry): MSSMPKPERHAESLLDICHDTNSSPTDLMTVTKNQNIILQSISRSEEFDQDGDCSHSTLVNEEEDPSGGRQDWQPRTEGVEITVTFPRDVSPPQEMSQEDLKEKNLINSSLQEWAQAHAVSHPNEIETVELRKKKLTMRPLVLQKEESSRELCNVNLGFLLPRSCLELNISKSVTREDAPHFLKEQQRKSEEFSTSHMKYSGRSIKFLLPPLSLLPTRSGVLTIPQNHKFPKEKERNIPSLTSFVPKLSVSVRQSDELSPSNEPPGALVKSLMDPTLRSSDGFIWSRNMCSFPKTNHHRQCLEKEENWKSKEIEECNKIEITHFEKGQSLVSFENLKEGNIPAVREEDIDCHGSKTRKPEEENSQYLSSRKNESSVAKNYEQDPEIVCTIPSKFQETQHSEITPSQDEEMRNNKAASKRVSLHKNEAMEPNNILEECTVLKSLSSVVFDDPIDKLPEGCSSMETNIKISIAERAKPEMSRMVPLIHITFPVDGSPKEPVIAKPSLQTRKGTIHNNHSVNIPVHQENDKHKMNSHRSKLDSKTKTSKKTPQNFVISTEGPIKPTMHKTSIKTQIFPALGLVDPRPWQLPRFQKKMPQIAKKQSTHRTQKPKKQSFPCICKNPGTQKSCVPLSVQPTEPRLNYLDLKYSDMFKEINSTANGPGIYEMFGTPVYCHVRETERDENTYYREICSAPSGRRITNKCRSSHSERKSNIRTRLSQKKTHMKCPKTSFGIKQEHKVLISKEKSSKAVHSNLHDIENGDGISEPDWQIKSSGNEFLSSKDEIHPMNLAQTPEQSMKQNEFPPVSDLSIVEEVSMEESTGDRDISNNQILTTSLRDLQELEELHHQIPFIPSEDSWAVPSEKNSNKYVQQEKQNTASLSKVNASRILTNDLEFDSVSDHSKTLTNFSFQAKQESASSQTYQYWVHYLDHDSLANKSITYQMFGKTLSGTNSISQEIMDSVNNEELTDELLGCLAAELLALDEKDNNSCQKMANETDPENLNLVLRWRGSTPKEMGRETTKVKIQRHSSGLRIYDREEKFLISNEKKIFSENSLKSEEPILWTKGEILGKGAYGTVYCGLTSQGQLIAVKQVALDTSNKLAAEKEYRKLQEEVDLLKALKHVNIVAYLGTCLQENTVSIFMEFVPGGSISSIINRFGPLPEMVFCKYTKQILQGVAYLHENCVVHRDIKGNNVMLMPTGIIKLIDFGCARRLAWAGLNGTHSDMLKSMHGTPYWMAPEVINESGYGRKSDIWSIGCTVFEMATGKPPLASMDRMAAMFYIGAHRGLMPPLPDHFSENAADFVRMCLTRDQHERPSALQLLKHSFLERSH
How it was run: as §1

p70S6K = target: T2, p70S6K (Homo sapiens, UniProt P23443)
T2 construct: gene RPS6KB1
How it was run: as §1

AMPKα1/β1/γ1 = target: T3, AMPKα1/β1/γ1 (Homo sapiens, UniProt Q13131)
T3 construct: gene PRKAA1
T3 sequence (Q13131 whole entry): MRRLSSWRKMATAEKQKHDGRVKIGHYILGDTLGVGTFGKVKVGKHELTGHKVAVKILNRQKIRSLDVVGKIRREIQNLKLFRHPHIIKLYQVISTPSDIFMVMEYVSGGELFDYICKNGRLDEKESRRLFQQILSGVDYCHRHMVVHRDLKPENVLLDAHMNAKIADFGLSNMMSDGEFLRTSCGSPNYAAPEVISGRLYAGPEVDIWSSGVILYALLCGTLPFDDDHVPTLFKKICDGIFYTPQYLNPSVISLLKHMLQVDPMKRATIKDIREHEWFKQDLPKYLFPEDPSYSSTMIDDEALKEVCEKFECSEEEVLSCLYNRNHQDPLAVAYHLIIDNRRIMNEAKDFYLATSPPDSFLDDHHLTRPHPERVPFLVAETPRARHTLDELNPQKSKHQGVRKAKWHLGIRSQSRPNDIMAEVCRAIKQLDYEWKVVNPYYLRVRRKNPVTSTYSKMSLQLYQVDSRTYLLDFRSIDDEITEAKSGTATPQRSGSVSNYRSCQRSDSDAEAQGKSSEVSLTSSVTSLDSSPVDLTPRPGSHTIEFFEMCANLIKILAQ
T3 sequence (P54619 whole entry partner): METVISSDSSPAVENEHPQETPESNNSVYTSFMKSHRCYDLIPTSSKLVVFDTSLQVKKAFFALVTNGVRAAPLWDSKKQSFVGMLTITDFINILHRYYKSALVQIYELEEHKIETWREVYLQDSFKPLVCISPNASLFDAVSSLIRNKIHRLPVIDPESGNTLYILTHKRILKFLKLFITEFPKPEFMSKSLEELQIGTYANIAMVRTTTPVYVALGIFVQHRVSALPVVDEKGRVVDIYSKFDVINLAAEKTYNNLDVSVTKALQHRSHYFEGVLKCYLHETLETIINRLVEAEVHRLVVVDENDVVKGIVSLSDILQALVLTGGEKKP
T3 sequence (Q9Y478 whole entry partner): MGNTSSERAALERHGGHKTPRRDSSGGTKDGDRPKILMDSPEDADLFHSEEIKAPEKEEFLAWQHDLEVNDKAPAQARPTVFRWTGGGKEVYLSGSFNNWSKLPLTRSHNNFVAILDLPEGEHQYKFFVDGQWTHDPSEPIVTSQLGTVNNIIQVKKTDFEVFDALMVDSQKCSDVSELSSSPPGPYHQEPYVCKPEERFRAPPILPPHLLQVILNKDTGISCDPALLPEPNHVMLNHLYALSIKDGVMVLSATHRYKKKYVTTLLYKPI
How it was run: as §1

CDK18/CycY = CDK18/CycY (Homo sapiens, UniProt Q07002)
How it was run: as §1

CK1α = target: T4, CK1α (Homo sapiens, UniProt P48729)
T4 construct: gene CSNK1A1
How it was run: as §1

ROCK1 = ROCK1 (Homo sapiens, UniProt Q13464)
Sequence of ROCK1 (Q13464 whole entry): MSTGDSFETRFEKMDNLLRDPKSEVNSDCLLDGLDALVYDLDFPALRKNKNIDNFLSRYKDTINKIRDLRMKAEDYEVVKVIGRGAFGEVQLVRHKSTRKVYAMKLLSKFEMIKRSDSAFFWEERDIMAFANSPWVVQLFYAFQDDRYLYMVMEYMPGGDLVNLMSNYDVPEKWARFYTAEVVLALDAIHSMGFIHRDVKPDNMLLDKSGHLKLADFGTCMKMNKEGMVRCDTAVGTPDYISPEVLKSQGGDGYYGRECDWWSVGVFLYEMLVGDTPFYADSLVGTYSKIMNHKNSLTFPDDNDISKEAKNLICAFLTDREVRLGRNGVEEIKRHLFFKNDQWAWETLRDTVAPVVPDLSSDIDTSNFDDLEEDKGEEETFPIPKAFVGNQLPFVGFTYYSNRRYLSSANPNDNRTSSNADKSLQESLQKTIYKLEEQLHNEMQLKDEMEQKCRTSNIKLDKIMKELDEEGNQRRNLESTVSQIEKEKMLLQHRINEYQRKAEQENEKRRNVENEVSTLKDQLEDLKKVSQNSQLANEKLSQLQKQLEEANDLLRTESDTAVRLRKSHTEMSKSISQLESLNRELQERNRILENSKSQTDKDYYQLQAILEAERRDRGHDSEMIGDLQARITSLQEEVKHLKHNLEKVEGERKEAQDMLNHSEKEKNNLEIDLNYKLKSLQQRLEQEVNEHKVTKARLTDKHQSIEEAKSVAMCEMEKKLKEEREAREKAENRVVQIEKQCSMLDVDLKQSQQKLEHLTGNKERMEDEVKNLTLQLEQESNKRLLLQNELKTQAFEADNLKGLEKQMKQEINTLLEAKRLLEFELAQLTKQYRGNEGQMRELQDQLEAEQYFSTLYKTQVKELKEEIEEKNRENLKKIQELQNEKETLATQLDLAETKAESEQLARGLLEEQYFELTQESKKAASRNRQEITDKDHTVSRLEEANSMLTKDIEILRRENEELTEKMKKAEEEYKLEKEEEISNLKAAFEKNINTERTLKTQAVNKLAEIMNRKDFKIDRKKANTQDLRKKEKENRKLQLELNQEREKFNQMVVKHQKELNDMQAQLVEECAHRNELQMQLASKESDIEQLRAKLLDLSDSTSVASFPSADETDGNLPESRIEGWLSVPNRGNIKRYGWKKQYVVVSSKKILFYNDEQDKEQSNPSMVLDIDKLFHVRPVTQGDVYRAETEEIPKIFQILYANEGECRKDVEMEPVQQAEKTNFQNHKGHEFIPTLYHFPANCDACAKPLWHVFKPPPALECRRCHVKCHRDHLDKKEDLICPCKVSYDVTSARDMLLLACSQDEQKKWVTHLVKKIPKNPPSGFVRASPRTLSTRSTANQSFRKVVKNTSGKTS
How it was run: as §1

TGFβR1 = target: T5, TGFβR1 (Homo sapiens, UniProt P36897)
T5 construct: gene TGFBR1
How it was run: as §1

IRAK4 = IRAK4 (Homo sapiens, UniProt Q9NWZ3)
Sequence of IRAK4 (Q9NWZ3 whole entry): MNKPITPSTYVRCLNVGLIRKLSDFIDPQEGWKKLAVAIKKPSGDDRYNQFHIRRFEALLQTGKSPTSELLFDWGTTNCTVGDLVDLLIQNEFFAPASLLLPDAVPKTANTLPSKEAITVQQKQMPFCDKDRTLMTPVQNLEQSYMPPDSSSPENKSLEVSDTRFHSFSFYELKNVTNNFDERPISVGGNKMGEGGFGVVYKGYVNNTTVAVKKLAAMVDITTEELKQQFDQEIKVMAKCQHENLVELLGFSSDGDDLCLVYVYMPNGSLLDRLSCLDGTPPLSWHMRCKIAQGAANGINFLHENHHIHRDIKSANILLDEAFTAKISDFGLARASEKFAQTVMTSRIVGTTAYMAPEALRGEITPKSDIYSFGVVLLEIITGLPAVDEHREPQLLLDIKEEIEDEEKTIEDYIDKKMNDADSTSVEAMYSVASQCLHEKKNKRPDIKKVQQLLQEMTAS
How it was run: as §1

DCAMKL2 = target: T6, DCAMKL2 (Homo sapiens, UniProt Q8N568)
T6 construct: gene DCLK2
How it was run: as §1

SRC = SRC (Homo sapiens, UniProt P12931)
Sequence of SRC (P12931 whole entry): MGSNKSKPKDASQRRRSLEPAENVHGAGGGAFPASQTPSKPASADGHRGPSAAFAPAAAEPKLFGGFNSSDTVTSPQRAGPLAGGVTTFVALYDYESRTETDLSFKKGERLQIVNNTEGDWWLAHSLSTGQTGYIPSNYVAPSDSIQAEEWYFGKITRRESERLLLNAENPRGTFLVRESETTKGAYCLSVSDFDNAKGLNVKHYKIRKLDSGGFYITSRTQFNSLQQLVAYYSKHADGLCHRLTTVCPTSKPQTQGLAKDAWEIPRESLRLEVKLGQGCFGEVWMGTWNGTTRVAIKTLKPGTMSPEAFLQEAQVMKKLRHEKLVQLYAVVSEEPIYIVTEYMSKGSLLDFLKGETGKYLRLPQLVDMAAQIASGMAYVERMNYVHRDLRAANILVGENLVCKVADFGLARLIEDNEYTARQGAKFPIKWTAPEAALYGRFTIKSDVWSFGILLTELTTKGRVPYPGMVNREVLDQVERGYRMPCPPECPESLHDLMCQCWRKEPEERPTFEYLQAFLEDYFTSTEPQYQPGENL
How it was run: as §1

EPHB4 = EPHB4 (Homo sapiens, UniProt P54760)
How it was run: as §1

AurB = target: T7, AurB (Homo sapiens, UniProt Q96GD4)
T7 construct: gene AURKB
How it was run: as §1

RIPK2 = RIPK2 (Homo sapiens, UniProt O43353)
How it was run: as §1

Nc1cn2cc(-c3cnc4c(c3)N(C(=O)OC3CCCCC3)CCO4)ccc2n1 [Zharp1-163]
inhibition at 1 µM (HPK1; replicate Data1): 17%
inhibition at 1 µM (HPK1; replicate Data2): 2.46%
inhibition at 1 µM (MAP3K19; replicate Data1): -4.19%
inhibition at 1 µM (MAP3K19; replicate Data2): 10.2%
inhibition at 1 µM (p70S6K; replicate Data1): -3.27%
inhibition at 1 µM (p70S6K; replicate Data2): -3.18%
inhibition at 1 µM (AMPKα1/β1/γ1; replicate Data1): 12.1%
inhibition at 1 µM (AMPKα1/β1/γ1; replicate Data2): 6.96%
inhibition at 1 µM (CDK18/CycY; replicate Data1): 4.89%
inhibition at 1 µM (CDK18/CycY; replicate Data2): -0.64%
inhibition at 1 µM (CK1α; replicate Data1): -4.65%
inhibition at 1 µM (CK1α; replicate Data2): -16.6%
inhibition at 1 µM (ROCK1; replicate Data1): 2.59%
inhibition at 1 µM (ROCK1; replicate Data2): 4.57%
inhibition at 1 µM (TGFβR1; replicate Data1): 7.16%
inhibition at 1 µM (TGFβR1; replicate Data2): 7.76%
inhibition at 1 µM (IRAK4; replicate Data1): 8.12%
inhibition at 1 µM (IRAK4; replicate Data2): 17.2%
inhibition at 1 µM (DCAMKL2; replicate Data1): 5.19%
inhibition at 1 µM (DCAMKL2; replicate Data2): 1.92%
inhibition at 1 µM (SRC; replicate Data1): -5.44%
inhibition at 1 µM (SRC; replicate Data2): -0.43%
inhibition at 1 µM (EPHB4; replicate Data1): 1.63%
inhibition at 1 µM (EPHB4; replicate Data2): -4.43%
inhibition at 1 µM (AurB; replicate Data1): 8.89%
inhibition at 1 µM (AurB; replicate Data2): 13.4%
inhibition at 1 µM (RIPK2; replicate Data1): -0.35%
inhibition at 1 µM (RIPK2; replicate Data2): -3.05%
